Source: patent US9861640B2, “Medicament for treatment of Alzheimer's disease” (KEMPHYS LTD., priority 2013, dated 2018)

Tests used:
APP23 mice = test: Morris water maze (MWM) test; format: in vivo, mouse; details: 8.5-month-old male APP23 mice; for acquisition of spatial learning (escape latency) in the MWM test: oral Am80 0.5 mg/kg and/or HX630 5 mg/kg for 17 days, vs vehicle-treated APP23 mice
Description: Hemizygous APP23 mice, which overexpress human-type AβPP carrying the double mutation K670N/M671L, were produced and bred as previously described. Only male mice were analyzed. Wistar rats were obtained from Kyudo Co., Ltd. (Kumamoto, Japan). Animals were housed in standard mouse cages under standard laboratory conditions: food and water available ad libitum, constant room temperature and humidity, and a 12 h light/12 h dark cycle (light on from 08:00 to 20:00). These animal experiments were conducted according to the guidelines of the Ministry of Education, Culture, Sports, Science, and Technology of Japan, and were approved by the Institutional Animal Care and Use Committee of Kumamoto University (#B25-133).
(§1) APP23 mice begin forming amyloid deposits when they are 6 months old, but memory deficits in the MWM test appear quite early (before 3 months of age). Here, we used 8.5-month-old male APP23 mice and their WT littermates (C57BL/6J). We used stratified random sampling to divide mice (four to six per cage) into four groups to equalize the mean body weight of the study groups: mice given 0.5 mg/kg/d Am80, those given 5 mg/kg/d HX630, those given the mixture of 0.5 mg/kg/d Am80 and 5 mg/kg/d HX630, and those given the vehicle. Am80 and HX630 were suspended in 0.5% (w/v) carboxymethylcellulose solution and were orally administered to mice at 0.5 mg/kg (Am80) or 5 mg/kg (HX630) for 17 consecutive days (once daily at 18:00). Control animals received the same volume of 0.5% (w/v) carboxymethylcellulose solution orally, without the other compounds. […]
The MWM test was performed as described previously. […] During both acquisition and probe trials, the routes of the mice were recorded by means of a computerized video tracking system (CompACT VAS; Muromachi Kikai Co. Ltd., Tokyo, Japan). Training trials measured the time it took for a mouse to find the escape platform. Probe trials determined the percent time spent in each quadrant of the maze. […]

NEP = test: Immunoblot of NEP in brains of APP23 mice; format: in vivo, mouse; details: Am80 0.5 and/or HX630 5 mg/kg/d, day 18, vs vehicle-treated mice
Description: as §1, with “compounds. We set the 0.5 mg/kg/d dose for Am80 on the basis that this had been found effective in other in vivo studies, such as those by Kawahara et al. and Ishido and Shudo [37]. Higher doses of Am80 (3 mg/kg/d and 6 mg/kg/d) were also orally administered to mice for 17 consecutive days. Animals were weighed once a week. Mice were subjected to behavioral testing on days 15-18 of the first oral administration of the compounds (at 19:00-23:00). On days 15-17 (not day 18), animals received the compounds at 24:00, after behavioral testing.” for “compounds.”

[1] = system: RA response element (RARE); test: RARE luciferase reporter gene assay in MG5 cells; format: cell-based, mouse; details: pGL3-RARE-Luc; 5 μM each, 24 h; fold induction relative to vehicle-treated cells
Description: MG5 cells (2×10^6 cells in 100 μl) were transfected by electroporation with 1.0 μg of pGL3-RARE-Luc (#13458; Addgene) or pGL3-Luc vector (Promega) and 0.25 μg of Renilla luciferase vector (phRL-TK) (Promega), using the Nucleofector transfection system (program #D-032; Amaxa) according to the manufacturer's protocol, taken up in the medium, and seeded in 48-well plates (1.25×10^5 cells/well). For some experiments, cells were transfected with 1.0 μg of pGL3-RARE-Luc or pGL3-Luc vector and 0.25 μg of phRL-TK in the presence of 0.25 μg each of pcDNA3.1-RAR (#16287; Addgene) and pcDNA3.1-RXR (#8882; Addgene). An empty pcDNA3.1 expression vector was used to maintain equal amounts of DNA for each transfection. Five hours after transfection, the cells were exposed to Am80 (5 μM) and/or HX630 (5 μM) in the medium for 24 h. Luciferase activities were determined in cell lysates. Firefly luciferase activity was normalized to that of Renilla luciferase for each well.

Row | SMILES | acquisition of spatial learning (escape latency) in the MWM test (APP23 mice) | memory deficits in APP23 mice (MWM) (APP23 mice; oral Am80 0.5 mg/kg and/or HX630 5 mg/kg, 17 days) | NEP protein level in brain (immunoblot) (NEP) | RARE reporter activity in MG5 cells [1]
1 | CC1(C)CCC(C)(C)c2cc(NC(=O)c3ccc(C(=O)O)cc3)ccc21 [Am80, 4-{(5,6,7,8-tetrahydro-5,5,8,8-tetramethyl-2-naphthalenyl)carbamoyl}benzoic acid] | No significant difference | did not ameliorate memory deficits | Higher levels | 4.3 fold
2 | CN1c2ccccc2N=C(c2ccc(C(=O)O)cc2)c2cc3c(cc21)C(C)(C)CCC3(C)C [HX630, 4-[5H-2,3-(2,5dimethyl-2,5-hexano)-5-methyldibenzo[b,e]-diazepin-11-yl]benzoic acid] | No significant difference |  | Higher levels | no increase
